The first test concerns CHIKV strain of La Réunion outbreak (LR2006-OPY1) with GFP modification in 5′. Put plainly: microbe, parasite or virus in culture. The settings on record: Chikungunya virus, HEK-293T; compounds at 1 μM, infected HEK293T cells, MOI 0.1, 22 h; values above 100 lowered to 100; read-out: % CHIKV Inhibition Mean (n = 2). It counts as cell-based, Chikungunya virus. On the procedure: The ability of the compounds to inhibit viral replication was assessed with an experiment in which infected cells were treated by compounds of formula (Ic) at 1 μM. As a positive control for inhibition of Chikungunya, Ribavirin was used. Toxicity of the compounds was assessed in parallel.
Human embryonic kidney cells 293T (HEK293T, CRL-11268) were maintained in Dulbecco's modified Eagle's Medium (DMEM, 31966-021, Thermo Fisher Scientific) supplemented with 10% of fetal bovine serum (FBS), penicillin and streptomycin. After removal of the medium, cells were washed with Ca^2+ and Mg^2+-free salt solution to remove all traces of serum. After aspiration of wash solution, cells were dissociated with 0.25% Trypsin-EDTA solution and incubated 30 s at least in 37° C. incubator. Concentration of cell suspension was determined by an automatic cell counter (EVE, NanoEntek) and, if needed, adjusted to 0.33×10^6 cells/mL with DMEM medium supplemented with 10% FBS.
100 μL of the cell suspension were dispatched in a ViewPlate-96 Black (6005182, PerkinElmer) and in a transparent 96-well cell culture plate (655180, Greiner bio-one). After an incubation for 24 h at 37° C. under 5% of CO2, compounds were added at the proper concentration.
An intermediate dilution was prepared with DMSO (D8418, Sigma) at 2 mM in a 96-well V-bottom microplate from the stock solution:
An intermediate dilution was prepared with DMSO (D8418, Sigma) at 25 mM in a 96-well V-bottom microplate from the stock solution:
Perform serial dilution in 2 μL of DMSO 13 times to reach 0.0015 mM. Proceed as follows in table III:
For both screen and determination of IC50, 1 μL of each solution was added in a 1 mL Masterblock 96 wells (Greiner bio-one, 780261) containing 1 mL of DMEM medium. As a positive control, 5 μL of a 80 mM Ribavirin solution (R9644, Sigma) is added to 1 mL of DMEM. On the other hand, DMSO is used as a negative control.
[…]. Vector Borne Zoonotic Dis. 2006; 6 (4)). This modified virus was used to infect cells at MOI 0.1. […].
Medium was removed after 22 h at 37° C. under 5% of CO2 and cells were washed as described above. 60 μL of RIPA buffer (50 mM Tris-HCl pH8, 100 mM NaCl, 1 mM MgCl2, 1% Triton X-100) was added to cells and incubated for at least 20 min before reading fluorescence signal. Pierce 660 nm Protein Assay Reagent (22660, Thermo scientific) was used to normalize fluorescence signal by protein quantity.
• A first round of experiments has been performed wherein the results are expressed as inhibition percentage, which is calculated as follows, through the following steps: • 1. Fluorescence intensity (FI)/Absorbance 660 nm (A660)=A • This ratio allows considering the infection (GFP virus) to the protein amount. • 2. A′=A−background noise of non-infected plate, • 3. B=Fluorescence intensity (FI)/Absorbance 660 nm (A660) of infected but non treated plates, • 4. C=A′/B, which is then converted as the percentage of infection after treatment, compared to non-treated sample, and subsequently as the infection percentage. For instance, a value of 100 in Table IV here below means that, after treatment, the signal attributed to GFP fluorescence is abolished, which is correlated to the absence of infection. • 5. C′=100-C
This value corresponds to the inhibition's percentage.
The following Table IV encompasses said C′ value for some compounds, as calculated above with a mean of 2 experiments, and corresponding standard deviation.
Some values were originally above 100. In these cases, the value has been lowered to 100. This means that some molecules also have an impact on the viability of the cells. In other words, the A value may be lower than the background noise.
Moreover, for each measure, the test was performed with Ribavirin as control. The value of the inhibition percentage was checked, giving 100%.
Turning to `CC(C)CCNC(=O)c1cccc(Nc2ccc(C(=O)N=C3NCCCN3)cc2)c1` [compound 23, N-isopentyl-3-((4-((tetrahydropyrimidin-2(1H)-ylidene)carbamoyl)phenyl)amino)benzamide], the inhibition – broadly, the relative decrease from the control value, in per cent – at 1 µM came out at 98%.

In the case of `O=C(N=C1NCCCN1)c1ccc(Nc2cccc(C(=O)NCCC3CCC3)c2)cc1` [compound 26, N-(2-cyclobutylethyl)-3-((4-((tetrahydropyrimidin-2(1H)-ylidene)carbamoyl)phenyl)amino)benzamide], the inhibition at 1 µM was determined as 97%.

Turning to `O=C(N=C1NCCCN1)c1ccc(Nc2cccc(C(=O)NCCC3CCCCC3)c2)cc1` [compound 24, N-(2-cyclohexylethyl)-3-((4-((tetrahydropyrimidin-2(1H)-ylidene)carbamoyl)phenyl)amino)benzamide], the inhibition at 1 µM was 100%.

Consider `O=C(N=C1NCCCN1)c1ccc(Nc2cccc(C(=O)NCCC3CCCC3)c2)cc1` [compound 22, N-(2-cyclopentylethyl)-3-((4-((tetrahydropyrimidin-2(1H)-ylidene)carbamoyl)phenyl)amino)benzamide], for which the inhibition at 1 µM came to 94%.

Staying with this test, now noted: Chikungunya virus, HEK-293T; second round of experiments, infected HEK293T cells.
As for `CC(C)CCNC(=O)c1cccc(Nc2ccc(C(=O)N=C3NCCCN3)cc2)c1` [compound 23, N-isopentyl-3-((4-((tetrahydropyrimidin-2(1H)-ylidene)carbamoyl)phenyl)amino)benzamide], the IC50 (in general, the concentration that inhibits the measured activity by half) is 100 to 400 nM.

The molecule `O=C(N=C1NCCCN1)c1ccc(Nc2cccc(C(=O)NCCC3CCCCC3)c2)cc1` [compound 24, N-(2-cyclohexylethyl)-3-((4-((tetrahydropyrimidin-2(1H)-ylidene)carbamoyl)phenyl)amino)benzamide] yielded an IC50 of 100 to 400 nM.

`O=C(N=C1NCCCN1)c1ccc(Nc2cccc(C(=O)NCCC3CCCC3)c2)cc1` [compound 22, N-(2-cyclopentylethyl)-3-((4-((tetrahydropyrimidin-2(1H)-ylidene)carbamoyl)phenyl)amino)benzamide] returned an IC50 of 100 to 400 nM.

In the next test the test system is RSV A2. Kind of test: RSV inhibition (cytopathic effect) in HEp-2 cells using Viral ToxGlo assay. Type of test: cell-based. The settings on record: human respiratory syncytial virus; RSV A2, HEp-2 cells, MOI 0.5, 72 h p.i. The method, boiled down: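 HEp-2 cells seeded overnight, then given compounds (≤1% DMSO final) in 2% FBS EMEM and infected right away with RSV A2 at MOI 0.5; uninfected wells used for cytotoxicity. After 72 h p.i. at 37 °C/5% CO2, cytopathic effect read by Viral ToxGlo luminescence after 20 min at room temperature.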
On the technique in general: Protection from cytopathic effect is a common read-out in antiviral testing.
Turning to `CC1CN(C(=O)c2cccc(Nc3ccc(C(=O)/N=C4\NCCC(=O)N4)cc3C3CC3)c2Cl)CCO1` (centres unmarked) [compound 92, 4-{[2-chloro-3-(2-methylmorpholine-4-carbonyl)phenyl]amino}-3-cyclopropyl-N-[(2E)-4-oxo-1,3-diazinan-2-ylidene]benzamide], the EC50 (usually the concentration needed to bring the measured effect to its halfway point) is 2 nM.

Take `CC(C)(C)NC(=O)c1cccc(Nc2ccc(C(=O)N=C3NCCCN3)cc2C2CC2)c1` [compound 123, 4-{[3-(tert-butylcarbamoyl)phenyl]amino}-3-cyclopropyl-N-(1,3-diazinan-2-ylidene)benzamide]: the EC50 was determined as 147 nM.

With `O=C(N=C1NCCCN1)c1ccc(Nc2cccc(C(=O)NC3CC3)c2)c(C2CC2)c1` [compound 114, 3-cyclopropyl-4-{[3-(cyclopropylcarbamoyl)phenyl]amino}-N-(1,3-diazinan-2-ylidene)benzamide], the EC50 turned out to be 110 nM.

Regarding `O=C1CCN/C(=N\C(=O)c2ccc(Nc3cccc(C(=O)NC4CC4)c3)c(C3CC3)c2)N1` [compound 145, 3-cyclopropyl-4-{[3-(cyclopropylcarbamoyl)phenyl]amino}-N-[(2E)-4-oxo-1,3-diazinan-2-ylidene]benzamide], the EC50 was determined as 421 nM.

As for `O=C(N=C1NCCCN1)c1ccc(Nc2cccc(-n3cc(CC4CCCCC4)nn3)c2)c(C2CC2)c1` [compound 119, 4-({3-[4-(cyclohexylmethyl)-1H-1,2,3-triazol-1-yl]phenyl}amino)-3-cyclopropyl-N-(1,3-diazinan-2-ylidene)benzamide], the EC50 is 130 nM.

Turning to `CC(C)NC(=O)c1cccc(Nc2ccc(C(=O)N=C3NCCCN3)cc2C2CC2)c1` [compound 102, 3-cyclopropyl-N-(1,3-diazinan-2-ylidene)-4-({3-[(propan-2-yl)carbamoyl]phenyl}amino)benzamide], the EC50 is 41 nM.

Regarding `CC(C)CCN(C)C(=O)c1cccc(Nc2ccc(C(=O)N=C3NCCCN3)cc2C2CC2)c1` [compound 118, 3-cyclopropyl-N-(1,3-diazinan-2-ylidene)-4-({3-[methyl(3-methylbutyl)carbamoyl]phenyl}amino)benzamide], the EC50 worked out at 126 nM.

Regarding `O=C1CCN/C(=N\C(=O)c2ccc(Nc3cccc(OCC4CCOCC4)c3)c(C3CC3)c2)N1` [compound 146, 3-cyclopropyl-4-({3-[(oxan-4-yl)methoxy]phenyl}amino)-N-[(2E)-4-oxo-1,3-diazinan-2-ylidene]benzamide], the EC50 is 439 nM.

As to `CC(C)C(=O)Nc1cccc(Nc2ccc(C(=O)/N=C3\NCCC(=O)N3)cc2C2CC2)c1` [compound 116, 3-cyclopropyl-4-{[3-(2-methylpropanamido)phenyl]amino}-N-[(2E)-4-oxo-1,3-diazinan-2-ylidene]benzamide], the EC50 was found to be 122 nM.

Consider `CC1COCCN1C(=O)c1cccc(Nc2ccc(C(=O)/N=C3\NCCC(=O)N3)cc2C2CC2)c1Cl` (centres unmarked) [compound 91, 4-{[2-chloro-3-(3-methylmorpholine-4-carbonyl)phenyl]amino}-3-cyclopropyl-N-[(2E)-4-oxo-1,3-diazinan-2-ylidene]benzamide], for which the EC50 was found to be 2 nM.

With `CC(C)CCNC(=O)c1cccc(Nc2ccc(C(=O)N=C3NCCCN3)cc2C(F)(F)F)c1` [compound 104, N-(1,3-diazinan-2-ylidene)-4-({3-[(3-methylbutyl)carbamoyl]phenyl}amino)-3-(trifluoromethyl)benzamide], the EC50 was found to be 50 nM.

On to `CCC(CC)NC(=O)c1cccc(Nc2ccc(C(=O)N=C3NCCCN3)cc2C2CC2)c1` [compound 110, 3-cyclopropyl-N-(1,3-diazinan-2-ylidene)-4-({3-[(pentan-3-yl)carbamoyl]phenyl}amino)benzamide], for which the EC50 was 80 nM.

Consider `CC(C)NC(=O)c1cccc(Nc2ccc(C(=O)/N=C3\NCCC(=O)N3)cc2C2CC2)c1` [compound 120, 3-cyclopropyl-N-[(2E)-4-oxo-1,3-diazinan-2-ylidene]-4-({3-[(propan-2-yl)carbamoyl]phenyl}amino)benzamide], for which the EC50 amounted to 136 nM.

For the molecule `CCC(C)NC(=O)c1cccc(Nc2ccc(C(=O)N=C3NCCCN3)cc2C2CC2)c1` (centres unmarked) [compound 101, 4-({3-[(butan-2-yl)carbamoyl]phenyl}amino)-3-cyclopropyl-N-(1,3-diazinan-2-ylidene)benzamide], the EC50 was determined as 40 nM.

With `O=C(N=C1NCCCN1)c1ccc(Nc2cccc(C(=O)NC3CC(F)(F)C3)c2)c(C2CC2)c1` [compound 152, 3-cyclopropyl-N-(1,3-diazinan-2-ylidene)-4-({3-[(3,3-difluorocyclobutyl)carbamoyl]phenyl}amino)benzamide], the EC50 came out at 593 nM.

Turning to `CC(C)CCCCNC(=O)c1cccc(Nc2ccc(C(=O)N=C3NCCCN3)cc2C2CC2)c1` [compound 107, 3-cyclopropyl-N-(1,3-diazinan-2-ylidene)-4-({3-[(5-methylhexyl)carbamoyl]phenyl}amino)benzamide], the EC50 amounted to 68 nM.

With `O=C(N=C1NCCCN1)c1ccc(Nc2cccc(OCC3CCCCC3)c2)c(C2CC2)c1` [compound 127, 4-{[3-(cyclohexylmethoxy)phenyl]amino}-3-cyclopropyl-N-(1,3-diazinan-2-ylidene)benzamide], the EC50 is 172 nM.

On to `CC(C)CCCOc1cccc(Nc2ccc(C(=O)N=C3NCCCN3)cc2C2CC2)c1` [compound 132, 3-cyclopropyl-N-(1,3-diazinan-2-ylidene)-4-({3-[(4-methylpentyl)oxy]phenyl}amino)benzamide], for which the EC50 turned out to be 259 nM.

Regarding `O=C(CCC1CCCCC1)Nc1cc(Nc2ccc(C(=O)N=C3NCCCN3)cc2C(F)(F)F)ccc1F` [compound 148, 4-{[3-(3-cyclohexylpropanamido)-4-fluorophenyl]amino}-N-(1,3-diazinan-2-ylidene)-3-(trifluoromethyl)benzamide], the EC50 was 463 nM.
